Patent publication US9708314B2, “Heterocyclic amide compound” (NISSAN CHEMICAL INDUSTRIES, LTD., priority 2013, dated 2017)

How the values were obtained:
Type in all cases: in vivo
[1] = system: directly sowed Oryza sativa; experiment: Test Example 3: effect on crop by application to foliage (Wagner pot, water depth 0.1-0.5 cm); settings: Nineteenth Table; application to foliage; application herbicide amount 320 g/ha
In short: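 Plants are raised 14 days from seed in flooded-surface Wagner pots at 25–30 °C, sprayed on stems and leaves with diluted emulsion at a predetermined rate, and rated three weeks on using a 0–5 herbicidal-ratio scale (5 ≥90%).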

[2] = system: transplanted Oryza sativa; experiment: Test Example 1: effect on crop, application before weed generation in submerged conditions; settings: Application herbicide amount 320 g/ha; Seventeenth Table
In short: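 Pre-emergence application to water surface of submerged pots (4 cm depth, alluvial soil) on sowing day, with 2.5-leaf rice transplanted; emulsion diluted to g/ha rates. Grown in greenhouse at 25–30 °C; 0–5 herbicidal/crop-effect score after three weeks.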

Abutilon theophrasti = experiment: Test Example 4: herbicidal effect by application to foliage (diluvial soil, plastic box); settings: foliage application, 320 g/ha
In short: (§1)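 Plants were grown in sterilized diluvial soil in a greenhouse at 25-30° C for 14 days, then sprayed on stems and leaves with water-diluted emulsion formulation at set rates in g/ha. Weed control and crop injury were scored 3 weeks after treatment on a 0-5 herbicidal-ratio scale, from 0 (≤5%) to 5 (≥90%).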

Chenopodium album = experiment: as above; settings: foliage application, 320 g/ha
In short: as §1

Veronica persica = experiment: as above; settings: foliage application, 320 g/ha
In short: as §1

Avena fatua = experiment: as above; settings: foliage application, 320 g/ha
In short: as §1

Galium spurium = experiment: as above; settings: foliage application, 320 g/ha
In short: as §1

Apera spica-venti. = experiment: as above; settings: foliage application, 320 g/ha
In short: as §1

[3] = system: Echinochloa crus-galli var. crus-galli; experiment: as above; settings: foliage application, 320 g/ha
In short: as §1

Compound	b (effect on crop grade) [1]	a: transplanted Oryza sativa (effect on crop grade) [2]	M (Abutilon theophrasti) herbicidal effect grade (Abutilon theophrasti)	O (Chenopodium album) herbicidal effect grade (Chenopodium album)	R (Veronica persica) herbicidal effect grade (Veronica persica)	I (Avena fatua) herbicidal effect grade (Avena fatua)	Q (Galium spurium) herbicidal effect grade (Galium spurium)	L (Apera spica-venti.) herbicidal effect grade (Apera spica-venti.)	H (Echinochloa crus-galli var. crus-galli) herbicidal effect grade [3]
Cn1nnnc1NC(=O)c1ccc(C(F)(F)F)n2c(-c3ccc(F)cc3)nnc12 [2-043]	5 (Herbicidal ratio of 90% or more (almost completely withered))	4 (Herbicidal ratio of 70% or more and less than 90%)	5 (Herbicidal ratio of 90% or more (almost completely withered))	5 (Herbicidal ratio of 90% or more (almost completely withered))	5 (Herbicidal ratio of 90% or more (almost completely withered))	4 (Herbicidal ratio of 70% or more and less than 90%)	4 (Herbicidal ratio of 70% or more and less than 90%)	4 (Herbicidal ratio of 70% or more and less than 90%)	5 (Herbicidal ratio of 90% or more (almost completely withered))
COc1cccc(-c2nnc3c(C(=O)Nc4nnnn4C)ccc(C(F)(F)F)n23)c1 [2-044]	5 (Herbicidal ratio of 90% or more (almost completely withered))	4 (Herbicidal ratio of 70% or more and less than 90%)	5 (Herbicidal ratio of 90% or more (almost completely withered))	5 (Herbicidal ratio of 90% or more (almost completely withered))	5 (Herbicidal ratio of 90% or more (almost completely withered))	2 (Herbicidal ratio of 20% or more and less than 40%)	3 (Herbicidal ratio of 40% or more and less than 70%)	3 (Herbicidal ratio of 40% or more and less than 70%)	5 (Herbicidal ratio of 90% or more (almost completely withered))
COc1ccccc1-c1nnc2c(C(=O)Nc3nnnn3C)ccc(C(F)(F)F)n12 [2-045]	5 (Herbicidal ratio of 90% or more (almost completely withered))	5 (Herbicidal ratio of 90% or more (almost completely withered))	5 (Herbicidal ratio of 90% or more (almost completely withered))	5 (Herbicidal ratio of 90% or more (almost completely withered))	5 (Herbicidal ratio of 90% or more (almost completely withered))	2 (Herbicidal ratio of 20% or more and less than 40%)	3 (Herbicidal ratio of 40% or more and less than 70%)	3 (Herbicidal ratio of 40% or more and less than 70%)	5 (Herbicidal ratio of 90% or more (almost completely withered))
COC(=O)Cn1nnnc1NC(=O)c1ccc(C(F)(F)F)n2c(C(C)C)nnc12 [2-046]	0 (Herbicidal ratio of 5% or less (almost no effect))	0 (Herbicidal ratio of 5% or less (almost no effect))	4 (Herbicidal ratio of 70% or more and less than 90%)	4 (Herbicidal ratio of 70% or more and less than 90%)	1 (Herbicidal ratio of 5% or more and less than 20%)	0 (Herbicidal ratio of 5% or less (almost no effect))	1 (Herbicidal ratio of 5% or more and less than 20%)	0 (Herbicidal ratio of 5% or less (almost no effect))	3 (Herbicidal ratio of 40% or more and less than 70%)
CC(C)c1nnc2c(C(=O)Nc3nnnn3C)ccc(C(F)F)n12 [2-047]	3 (Herbicidal ratio of 40% or more and less than 70%)	4 (Herbicidal ratio of 70% or more and less than 90%)	5 (Herbicidal ratio of 90% or more (almost completely withered))	5 (Herbicidal ratio of 90% or more (almost completely withered))	5 (Herbicidal ratio of 90% or more (almost completely withered))	3 (Herbicidal ratio of 40% or more and less than 70%)	3 (Herbicidal ratio of 40% or more and less than 70%)	3 (Herbicidal ratio of 40% or more and less than 70%)	5 (Herbicidal ratio of 90% or more (almost completely withered))
CC(C)c1nnc2c(C(=O)Nc3nnnn3C)ccc(C(F)(F)C(F)(F)F)n12 [2-049]	1 (Herbicidal ratio of 5% or more and less than 20%)	3 (Herbicidal ratio of 40% or more and less than 70%)	4 (Herbicidal ratio of 70% or more and less than 90%)	5 (Herbicidal ratio of 90% or more (almost completely withered))	4 (Herbicidal ratio of 70% or more and less than 90%)	3 (Herbicidal ratio of 40% or more and less than 70%)	3 (Herbicidal ratio of 40% or more and less than 70%)	4 (Herbicidal ratio of 70% or more and less than 90%)	5 (Herbicidal ratio of 90% or more (almost completely withered))
CN(C)c1nnc2c(C(=O)Nc3nnnn3C)ccc(C(F)(F)F)n12 [2-051]	4 (Herbicidal ratio of 70% or more and less than 90%)	4 (Herbicidal ratio of 70% or more and less than 90%)	5 (Herbicidal ratio of 90% or more (almost completely withered))	5 (Herbicidal ratio of 90% or more (almost completely withered))	5 (Herbicidal ratio of 90% or more (almost completely withered))	5 (Herbicidal ratio of 90% or more (almost completely withered))	5 (Herbicidal ratio of 90% or more (almost completely withered))	5 (Herbicidal ratio of 90% or more (almost completely withered))	5 (Herbicidal ratio of 90% or more (almost completely withered))
CSCCc1nnc2c(C(=O)Nc3nnnn3C)ccc(C(F)(F)F)n12 [2-057]	5 (Herbicidal ratio of 90% or more (almost completely withered))	4 (Herbicidal ratio of 70% or more and less than 90%)	5 (Herbicidal ratio of 90% or more (almost completely withered))	5 (Herbicidal ratio of 90% or more (almost completely withered))	5 (Herbicidal ratio of 90% or more (almost completely withered))	4 (Herbicidal ratio of 70% or more and less than 90%)	4 (Herbicidal ratio of 70% or more and less than 90%)	4 (Herbicidal ratio of 70% or more and less than 90%)	5 (Herbicidal ratio of 90% or more (almost completely withered))
Cn1nnnc1NC(=O)c1ccc(C(F)(F)F)n2c(CC[S+](C)[O-])nnc12 (stereo not drawn) [2-058]	5 (Herbicidal ratio of 90% or more (almost completely withered))	5 (Herbicidal ratio of 90% or more (almost completely withered))	5 (Herbicidal ratio of 90% or more (almost completely withered))	5 (Herbicidal ratio of 90% or more (almost completely withered))	5 (Herbicidal ratio of 90% or more (almost completely withered))	5 (Herbicidal ratio of 90% or more (almost completely withered))	5 (Herbicidal ratio of 90% or more (almost completely withered))	4 (Herbicidal ratio of 70% or more and less than 90%)	5 (Herbicidal ratio of 90% or more (almost completely withered))
Cn1nnnc1NC(=O)c1ccc(C(F)(F)F)n2c(CCS(C)(=O)=O)nnc12 [2-059]	5 (Herbicidal ratio of 90% or more (almost completely withered))	5 (Herbicidal ratio of 90% or more (almost completely withered))	5 (Herbicidal ratio of 90% or more (almost completely withered))	5 (Herbicidal ratio of 90% or more (almost completely withered))	5 (Herbicidal ratio of 90% or more (almost completely withered))	4 (Herbicidal ratio of 70% or more and less than 90%)	5 (Herbicidal ratio of 90% or more (almost completely withered))	4 (Herbicidal ratio of 70% or more and less than 90%)	5 (Herbicidal ratio of 90% or more (almost completely withered))
